According to publication PMC12455996, “TGF-β inhibitor SB431542 suppresses SARS-CoV-2 replication through multistep inhibition” (Journal of Virology, 2025):

Target: T1, SARS-CoV-2 ORF3a (Severe acute respiratory syndrome coronavirus 2, UniProt P0DTC3)
T1 construct: gene 3a
Experiment: isothermal titration calorimetry
Format: binding

T1 sequence (P0DTC3 whole entry): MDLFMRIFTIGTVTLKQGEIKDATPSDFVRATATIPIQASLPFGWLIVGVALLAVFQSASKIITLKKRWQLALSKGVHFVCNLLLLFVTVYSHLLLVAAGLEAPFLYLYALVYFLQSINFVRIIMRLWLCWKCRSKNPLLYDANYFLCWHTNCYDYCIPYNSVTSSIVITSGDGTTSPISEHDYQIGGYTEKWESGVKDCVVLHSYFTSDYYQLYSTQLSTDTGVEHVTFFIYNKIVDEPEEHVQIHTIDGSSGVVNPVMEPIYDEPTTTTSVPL

## NC(=O)c1ccc(-c2nc(-c3ccc4c(c3)OCO4)c(-c3ccccn3)[nH]2)cc1 [SB431542]
  Kd: 220 ± 68.1 nM
